For data set [1], the target named is T1, CMV polymerase (Human cytomegalovirus, UniProt P08546).
T1 construct: made in house; host or cells: recombinant baculovirus-infected SF-9 cells
Nature of the data set: HCMV polymerase assay, scintillation proximity assay (SPA), modified version. In kind it is biochemical. As to conditions: modified HCMV polymerase SPA assay: compounds diluted in 100% DMSO, 4.5 mM DTT in polymerase buffer, different lot of CMV polymerase; read-out: CMV polymerase IC50. The method in brief:
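Baculovirus/SF-9-expressed HCMV polymerase in SPA with 90 nM ^3H-dTTP and 6 nM biotinylated poly(dA)-oligo(dT), pH 7.5 HEPES/KCl/MgCl2/BSA, with or without 2 mM CHAPS. Runs 30 min at 25 C. or 37 C., EDTA stop, streptavidin-SPA beads counted; IC50 by linear regression. Modified version: compounds diluted in 100% DMSO rather than 50%, plus 4.5 mM DTT.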
(In general: Scintillation proximity formats need no separation of bound from free tracer.)

T1 sequence (P08546 whole entry): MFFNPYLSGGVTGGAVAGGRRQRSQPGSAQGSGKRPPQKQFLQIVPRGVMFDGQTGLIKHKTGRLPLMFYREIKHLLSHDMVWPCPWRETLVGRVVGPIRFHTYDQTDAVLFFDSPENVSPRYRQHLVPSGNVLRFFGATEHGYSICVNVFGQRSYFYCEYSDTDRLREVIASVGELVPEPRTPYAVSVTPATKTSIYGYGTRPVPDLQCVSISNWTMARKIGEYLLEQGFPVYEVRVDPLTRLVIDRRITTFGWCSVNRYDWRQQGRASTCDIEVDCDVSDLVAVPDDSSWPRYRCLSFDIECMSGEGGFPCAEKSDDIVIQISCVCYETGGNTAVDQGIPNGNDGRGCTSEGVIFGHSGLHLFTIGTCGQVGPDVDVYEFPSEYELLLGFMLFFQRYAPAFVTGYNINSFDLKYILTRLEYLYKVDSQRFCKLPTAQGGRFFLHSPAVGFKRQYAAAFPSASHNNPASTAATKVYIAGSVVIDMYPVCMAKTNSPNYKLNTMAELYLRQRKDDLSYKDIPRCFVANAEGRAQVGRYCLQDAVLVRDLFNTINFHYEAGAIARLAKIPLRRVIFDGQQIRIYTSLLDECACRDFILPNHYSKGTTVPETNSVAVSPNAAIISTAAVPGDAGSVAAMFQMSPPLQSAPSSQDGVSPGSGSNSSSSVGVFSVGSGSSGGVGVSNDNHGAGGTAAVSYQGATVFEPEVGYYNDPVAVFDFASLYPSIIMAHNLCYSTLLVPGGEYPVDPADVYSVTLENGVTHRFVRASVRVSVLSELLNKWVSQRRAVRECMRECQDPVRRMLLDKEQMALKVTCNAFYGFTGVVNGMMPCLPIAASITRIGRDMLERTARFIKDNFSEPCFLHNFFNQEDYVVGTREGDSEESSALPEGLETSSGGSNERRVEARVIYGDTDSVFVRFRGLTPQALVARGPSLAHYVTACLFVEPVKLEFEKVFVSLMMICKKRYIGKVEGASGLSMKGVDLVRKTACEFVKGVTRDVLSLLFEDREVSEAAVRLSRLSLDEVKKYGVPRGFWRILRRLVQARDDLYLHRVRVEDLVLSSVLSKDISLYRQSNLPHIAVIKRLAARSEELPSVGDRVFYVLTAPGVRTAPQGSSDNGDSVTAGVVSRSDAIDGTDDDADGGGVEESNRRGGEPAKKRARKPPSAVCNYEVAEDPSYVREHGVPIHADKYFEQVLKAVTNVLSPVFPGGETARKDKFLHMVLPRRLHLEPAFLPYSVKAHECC

Compound `O=C(NCc1ccc(Cl)cc1)c1cn2c3c(cc(CN4CCOCC4)cc3c1=O)OC(c1ccc3c(c1)OCCO3)C2` (centres unmarked) [Example 41, N-(4-Chlorobenzyl)-2-(2,3-dihydro-1,4-benzodioxin-6-yl)-9-(morpholin-4-ylmethyl)-7-oxo-2,3-dihydro-7H-[1,4]oxazino[2,3,4-ij]quinoline-6-carboxamide] yielded a melting point of 240 to 243 °C. The IC50 in data set [1] was 440 nM.

With `O=C(NCc1ccc(Cl)cc1)c1cn2c3c(cc(CN4CCOCC4)cc3c1=O)OC(c1ccco1)C2` (centres unmarked) [Example 60, N-(4-Chlorobenzyl)-2-(2-furyl)-9-(morpholin-4-ylmethyl)-7-oxo-2,3-dihydro-7H-[1,4]oxazino[2,3,4-ij]quinoline-6-carboxamide], the melting point was in the range of 220 to 222.5 °C. In addition, in data set [1], the IC50 came out at 460 nM.

As to `O=C(NCc1ccc(Cl)cc1)c1cn2c3c(cc(CN4CCOCC4)cc3c1=O)OC(Cn1ccnc1)C2` (centres unmarked) [Example 13, N-(4-Chlorobenzyl)-2-(1H-imidazol-1-ylmethyl)-9-(4-morpholinylmethyl)-7-oxo-2,3-dihydro-7H-[1,4]oxazino[2,3,4-ij]quinoline-6-carboxamide], the melting point was 217 to 219 °C (dec.). Also, the IC50 in data set [1] amounted to 590 nM.

`O=C(NCc1ccc(Cl)cc1)c1cn2c3c(cc(CN4CCOCC4)cc3c1=O)OC1(CCSCC1)C2` [Example 53, N-[(4-Chlorophenyl)methyl]-2′,3′,5′,6′-tetrahydro-9-(4-morpholinylmethyl)-7-oxospiro[7H-pyrido[1,2,3-de]-1,4-benzoxazine-2(3H),4′-[4H]thiopyran]-6-carboxamide] gave a melting point of 147 to 149 °C. Moreover, in data set [1], the IC50 worked out at 530 nM.

With `O=C(NCc1ccc(Cl)cc1)c1cn2c3c(cc(CN4CCOCC4)cc3c1=O)OC(c1cccc3c1OCO3)C2` (centres unmarked) [Example 42, 2-(1,3-Benzodioxol-4-yl)-N-(4-chlorobenzyl)-9-(morpholin-4-ylmethyl)-7-oxo-2,3-dihydro-7H-[1,4]oxazino[2,3,4-ij]quinoline-6-carboxamide], the melting point was 221 to 225 °C (dec.). In addition, the IC50 in data set [1] stood at 200 nM.

For the compound `COC(=O)CSCC1Cn2cc(C(=O)NCc3ccc(Cl)cc3)c(=O)c3cc(CN4CCOCC4)cc(c32)O1` (centres unmarked) [Example 18, Methyl ({[6-{[(4-chlorobenzyl)amino]carbonyl}-9-(4-morpholinylmethyl)-7-oxo-2,3-dihydro-7H-[1,4]oxazino[2,3,4-ij]quinolin-2-yl]methyl}sulfanyl)acetate], the melting point lay in the range of 182.5 to 183 °C. The IC50 in data set [1] was 580 nM.

Take `CC(C)(C)OC(=O)N1CCC2(CC1)Cn1cc(C(=O)NCc3ccc(Cl)cc3)c(=O)c3cc(CN4CCOCC4)cc(c31)O2` [Example 47, 1,1-Dimethylethyl 6-[[[(4-chlorophenyl)methyl]amino]carbonyl]-9′-(4-morpholinylmethyl)-7′-oxospiro[piperidine-4,2′(3′H)-[7H]pyrido[1,2,3-de][1,4]benzoxazine]-1-carboxylate]: the melting point is 213 °C (dec.). In addition, in data set [1], the IC50 came to 830 nM.

As a reminder, the melting point is the temperature of the solid-liquid transition. The IC50 is the midpoint of a concentration-inhibition curve.

The values above are taken from patent publication US6673793B2, “Oxazinoquinolones useful for the treatment of viral infections” (Pharmacia & Upjohn Co., priority 2000, dated 2004).
